Data on one compound can be found in ChEMBL document CHEMBL6087385, “Synthesis and biological evaluation of Ribo 7-N/O/S pyrimidine 9-deaza C-nucleoside analogs as new antiviral agents for inhibiting HCV RNA-dependent RNA polymerases” (Eur J Med Chem, 2024).

Series [1] in a line: Toxicity in Sprague-Dawley rat assessed as weight loss at 90 mg/kg, po administered as single dose and measured after 14 days. In kind it is organism-based. Particulars: in vivo, 336 h, time 14 day.
Series [2] can be described thus: Half life in Sprague-Dawley rat at 1 mg/kg, iv by reverse phase chromatography. In kind it is ADME, organism-based. As to conditions: in vivo.
Series [3] can be described thus: Toxicity in rat assessed as effect on clinical observations at 1 to 9 mg/kg, po. In kind it is organism-based. As to conditions: in vivo, dose 1-9 mg/kg.
Series [4] is described as follows: Drug absorption in human Caco-2 cells. In kind it is ADME, cell-based.
Series [5] in a line: Tmax in Sprague-Dawley rat at 5 mg/kg, po by reverse phase chromatography. In kind it is ADME, organism-based. As to conditions: in vivo.
Series [6] in a line: Tmax in Cynomolgus monkey at 10 mg/kg, po administered for 7 days by reverse phase chromatography. In kind it is ADME, organism-based, Macaca fascicularis. Particulars: in vivo, time 7 day.

In the case of `C[C@@]1(O)[C@H](O)[C@@H](CO)O[C@H]1c1coc2c(N)ncnc12`, the Activity entry in series [1] is “Toxic”; in series [3] it was “Non-toxic”. Further, in series [2], the half-life is 1700 min. The Drug absorption result in series [4] is on record as “Not_active”. In addition, the results for the Tmax in series [5] and in series [6] were 30 min and 42 min, respectively.
